Common to all, as to format: cell-based, human
For experiment [1], the system named is cancer cell lines. In words: Cell viability analysis (WST-1) on cancer cell lines. To be noted: drug 10 μM, 72 hours, WST-1; Table 3. (Formazan colour is commonly taken as a measure of viable cells.)
For experiment [2], the system named is MKN-45 (Gastric Adenocarcinoma). In words: Cell viability analysis, gastric cancer MKN-45. Particulars: Homo sapiens, MKN-45, 72 h.
Experiment [3] has as its system HeLa (Cervix Adenocarcinoma). Kind of experiment: Cell viability analysis, cervical cancer HeLa. To be noted: Homo sapiens, HeLa, 72 h.
The subject of experiment [4] is PC3 (p53−) (Prostate Adenocarcinoma). Kind of experiment: Cell viability analysis, prostate cancer PC3. Particulars: Homo sapiens, 72 h.
The subject of experiment [5] is HI650 (Lung Adenocarcinoma). Kind of experiment: Cell viability analysis, lung cancer HI650. To be noted: Homo sapiens, NCI-H1650, 72 h.
The test system of experiment [6] is LoVo (Colorectal Adenocarcinoma). In words: Cell viability analysis, colon cancer LoVo. To be noted: Homo sapiens, LoVo, 72 h, read-out: cell viability (survival rate), LoVo, drug 10 μM, 72 hours, WST-1, OD450 nm.
Experiment [7] relates to HL-60 (Acute Promyelocytic Leukemia). Kind of experiment: Cell viability analysis, leukemia HL-60. Particulars: Homo sapiens, HL-60, 72 h.
For experiment [8], the system named is TSGH-8301 (Urinary Bladder Carcinoma). Kind of experiment: Cell viability analysis, bladder cancer TSGH-8301. To be noted: Homo sapiens, 72 h.
Experiment [9] concerns A375 (Amelanotic Melanoma). In words: Cell viability analysis, skin cancer A375. To be noted: Homo sapiens, A-375, 72 h.
Experiment [10] concerns MCF7 (Mammary Gland, Adenocarcinoma). In words: Cell viability analysis, breast cancer MCF7. Particulars: Homo sapiens, MCF7, 72 h.
Experiment [11] has as its system HepG2 (Hepatocellular Carcinoma). In words: Cell viability analysis, hepatic cancer HepG2. To be noted: Homo sapiens, HepG2, 72 h.
In experiment [12] the test system is AGS (Gastric Adenocarcinoma). Kind of experiment: Cell viability analysis, gastric cancer AGS. To be noted: Homo sapiens, 72 h.
Experiment [13] concerns A549 (Lung Adenocarcinoma). In words: Cell viability analysis, lung cancer A549. Particulars: Homo sapiens, A549, 72 h.
Where [14] appears, read: read-out: cell viability (survival rate), MKN-45, drug 10 μM, 72 hours, WST-1, OD450 nm.
Setting [15] is: read-out: cell viability (survival rate), HeLa, drug 10 μM, 72 hours, WST-1, OD450 nm.
Setting [16] is: read-out: cell viability (survival rate), PC3, drug 10 μM, 72 hours, WST-1, OD450 nm.
[17] abbreviates: read-out: cell viability (survival rate), H1650, drug 10 μM, 72 hours, WST-1, OD450 nm.
[18] abbreviates: read-out: cell viability (survival rate), HL-60, drug 10 μM, 72 hours, WST-1, OD450 nm.
The mark [19] stands for this setting: read-out: cell viability (survival rate), TSGH, drug 10 μM, 72 hours, WST-1, OD450 nm.
[20] abbreviates: read-out: cell viability (survival rate), A375, drug 10 μM, 72 hours, WST-1, OD450 nm.
The mark [21] stands for this setting: read-out: cell viability (survival rate), MCF7, drug 10 μM, 72 hours, WST-1, OD450 nm.
[22] abbreviates: read-out: cell viability (survival rate), HepG2, drug 10 μM, 72 hours, WST-1, OD450 nm.
[23] abbreviates: read-out: cell viability (survival rate), AGS, drug 10 μM, 72 hours, WST-1, OD450 nm.
Setting [24] is: read-out: cell viability (survival rate), A549, drug 10 μM, 72 hours, WST-1, OD450 nm.
The mark [25] stands for this setting: drug 10 μM, 72 hours, WST-1, OD450 nm, read-out: cell viability (survival rate), MKN-45.
The mark [26] stands for this setting: drug 10 μM, 72 hours, WST-1, OD450 nm, read-out: cell viability (survival rate), HeLa.
[27] abbreviates: drug 10 μM, 72 hours, WST-1, OD450 nm, read-out: cell viability (survival rate), PC3.
The mark [28] stands for this setting: drug 10 μM, 72 hours, WST-1, OD450 nm, read-out: cell viability (survival rate), H1650.
[29] abbreviates: drug 10 μM, 72 hours, WST-1, OD450 nm, read-out: cell viability (survival rate), HL-60.
[30] abbreviates: drug 10 μM, 72 hours, WST-1, OD450 nm, read-out: cell viability (survival rate), TSGH.
[31] abbreviates: drug 10 μM, 72 hours, WST-1, OD450 nm, read-out: cell viability (survival rate), A375.
The mark [32] stands for this setting: drug 10 μM, 72 hours, WST-1, OD450 nm, read-out: cell viability (survival rate), MCF7.
Setting [33] is: drug 10 μM, 72 hours, WST-1, OD450 nm, read-out: cell viability (survival rate), HepG2.
The mark [34] stands for this setting: drug 10 μM, 72 hours, WST-1, OD450 nm, read-out: cell viability (survival rate), AGS.
[35] abbreviates: drug 10 μM, 72 hours, WST-1, OD450 nm, read-out: cell viability (survival rate), A549.

Read-outs that look alike come from different tables or passages of the source.

As a reminder, the viability is a read-out of living cells in per cent, often relative to untreated cells.

As for `COc1ccc2c(c1)c(CC(=O)OCC(=O)O)c(C)n2C(=O)c1ccc(Cl)cc1` [Acemetacin (Emflex), Acemetacin], the “inhibition effect on different cancer cell lines” value in experiment [1] was “significant inhibition effect”. For the same compound, the viability at 10 µM worked out at 103% in experiment [2] (setting [14]); 70.9% in [3] (setting [15]); 90.5% in experiment [4] (setting [16]); 78.2% in [5] (setting [17]); 94.7% in [6]; 120% in experiment [7] (setting [18]). In addition, the viability at 10 µM came out at 99.4% in experiment [8] (setting [19]); 68.4% in experiment [9] (setting [20]); 87.3% in experiment [10] (setting [21]); 110% in experiment [11] (setting [22]); 69% in [12] (setting [23]); 88.1% in [13] (setting [24]).

In the case of `CC(=O)S[C@@H]1CC2=CC(=O)CC[C@]2(C)[C@H]2CC[C@@]3(C)[C@@H](CC[C@@]34CCC(=O)O4)[C@H]12` [Spironolactone], the “inhibition effect on different cancer cell lines” value in experiment [1] is reported as “significant inhibition effect”. Also, the viability at 10 µM in [2] (setting [14]) turned out to be 117%; in experiment [3] (setting [15]), 118%; in [4] (setting [16]), 88.5%; in [5] (setting [17]) it was 79.8%; in experiment [6] it was 67.2%; in experiment [7] (setting [18]), 57.2%. Also, the viability at 10 µM in [8] (setting [19]) worked out at 90.1%; in [9] (setting [20]), 61%; in experiment [10] (setting [21]) it was 87.7%; in experiment [11] (setting [22]), 90.5%; in experiment [12] (setting [23]), 96.6%; in [13] (setting [24]), 67.5%.

For the compound `NNC(=O)c1ccncc1` [Isoniazid (Tubizid), Isoniazid], the “inhibition effect on different cancer cell lines” value in [1] was “significant inhibition effect”. Besides, the viability at 10 µM came to 44.6% in experiment [2] (setting [25]); 77.9% in experiment [3] (setting [26]); 39.6% in experiment [4] (setting [27]); 64.7% in experiment [5] (setting [28]); 71% in experiment [6]; 102% in experiment [7] (setting [29]). The viability at 10 µM stood at 42.2% in experiment [8] (setting [30]); 54.9% in experiment [9] (setting [31]); 44.7% in experiment [10] (setting [32]); 110% in experiment [11] (setting [33]); 50.5% in experiment [12] (setting [34]); 45.7% in experiment [13] (setting [35]).

With `C[C@H](CCC(=O)O)[C@H]1CC[C@H]2[C@@H]3[C@H](O)C[C@@H]4C[C@H](O)CC[C@]4(C)[C@H]3CC[C@]12C` [Chenodeoxycholic acid], the “inhibition effect on different cancer cell lines” value in experiment [1] was “significant inhibition effect”. Besides, the viability at 10 µM in experiment [2] (setting [25]) worked out at 51.8%; in experiment [3] (setting [26]), 69.1%; in experiment [4] (setting [27]), 71.4%; in [5] (setting [28]) it was 68.1%; in [6], 82.7%; in [7] (setting [29]), 118%. Besides, the viability at 10 µM in experiment [8] (setting [30]) amounted to 88.8%; in [9] (setting [31]), 64.2%; in [10] (setting [32]), 74.5%; in experiment [11] (setting [33]), 94.8%; in [12] (setting [34]), 68.9%; in [13] (setting [35]), 96.3%.

Consider `O=C(NC(Cc1cc(=O)[nH]c2ccccc12)C(=O)O)c1ccc(Cl)cc1` (stereo not drawn) [Rebamipide], for which the “inhibition effect on different cancer cell lines” value in experiment [1] is on record as “significant inhibition effect”. Moreover, the viability at 10 µM in experiment [2] (setting [14]) is 97.4%; in experiment [3] (setting [15]) it was 77.4%; in experiment [4] (setting [16]), 82.2%; in [5] (setting [17]), 80.4%; in experiment [6], 84.9%; in experiment [7] (setting [18]) it was 100%. The viability at 10 µM in [8] (setting [19]) is 105%; in [9] (setting [20]) it was 81.1%; in [10] (setting [21]), 39.1%; in [11] (setting [22]), 95.3%; in [12] (setting [23]), 89.6%; in experiment [13] (setting [24]), 28%.

For `COc1cc(NS(=O)(=O)c2ccc(N)cc2)nc(OC)n1` [Sulphadimethoxine], the “inhibition effect on different cancer cell lines” value in experiment [1] is “significant inhibition effect”. The viability at 10 µM in [2] (setting [14]) was 72%; in experiment [3] (setting [15]), 68.8%; in experiment [4] (setting [16]), 94%; in [5] (setting [17]), 83.1%; in [6], 70.8%; in experiment [7] (setting [18]), 120%. Besides, the viability at 10 µM was 132% in experiment [8] (setting [19]); 76% in experiment [9] (setting [20]); 94.3% in experiment [10] (setting [21]); 90.3% in [11] (setting [22]); 99.3% in experiment [12] (setting [23]); 100% in [13] (setting [24]).

With `CC1(C)S[C@@H]2[C@H](NC(=O)C(C(=O)O)c3ccccc3)C(=O)N2[C@H]1C(=O)O` (stereo partly drawn) [Carbenicillin disodium], the “inhibition effect on different cancer cell lines” value in experiment [1] was “significant inhibition effect”. In addition, the viability at 10 µM turned out to be 84.3% in experiment [2] (setting [14]); 77.8% in [3] (setting [15]); 84.4% in experiment [4] (setting [16]); 76.2% in experiment [5] (setting [17]); 86.2% in experiment [6]; 114% in experiment [7] (setting [18]). Also, the viability at 10 µM in [8] (setting [19]) was found to be 84.3%; in experiment [9] (setting [20]), 70.2%; in experiment [10] (setting [21]), 59%; in [11] (setting [22]), 88.9%; in [12] (setting [23]) it was 62.9%; in experiment [13] (setting [24]) it was 53.5%.

On to `COC(=O)Nc1nc2ccc(Sc3ccccc3)cc2[nH]1` [Fenbendazole (Panacur), Fenbendazole], for which the “inhibition effect on different cancer cell lines” value in experiment [1] was “significant inhibition effect”. The viability at 10 µM came out at 40.3% in experiment [2] (setting [14]); 38.6% in experiment [3] (setting [15]); 42% in experiment [4] (setting [16]); 60.2% in [5] (setting [17]); 52.9% in experiment [6]; 66.6% in experiment [7] (setting [18]). The viability at 10 µM in experiment [8] (setting [19]) came to 27.2%; in experiment [9] (setting [20]), 40.6%; in experiment [10] (setting [21]) it was 55.8%; in experiment [11] (setting [22]), 76.1%; in experiment [12] (setting [23]), 29.9%; in experiment [13] (setting [24]) it was 40.9%.

For `CC1(C)S[C@@H]2[C@H](NC(=O)[C@H](NC(=O)N3CCN(S(C)(=O)=O)C3=O)c3ccccc3)C(=O)N2[C@H]1C(=O)O` [Mezlocillin Sodium], the “inhibition effect on different cancer cell lines” value in experiment [1] was “significant inhibition effect”. Moreover, the viability at 10 µM turned out to be 92.9% in [2] (setting [14]); 111% in experiment [3] (setting [15]); 97.8% in experiment [4] (setting [16]); 81% in experiment [5] (setting [17]); 116% in experiment [6]; 91.4% in experiment [7] (setting [18]). The viability at 10 µM in experiment [8] (setting [19]) worked out at 91.9%; in experiment [9] (setting [20]) it was 107%; in experiment [10] (setting [21]) it was 107%; in experiment [11] (setting [22]) it was 95.1%; in experiment [12] (setting [23]), 72.2%; in experiment [13] (setting [24]), 78%.

For the origin of these results see US10105357B2, “Indication of antibiotic drugs for preparation of cancer inhibition pharmaceutical composition” (LAUNX BIOMEDICAL CO., LTD., priority 2014, dated 2018).
